Values joined by “and” are separate entries in the source; they are usually repeats but may differ in a detail not shown here. Identical values can stand only once.
Legend:
[1] = Hygroscopicity test by DVS; assay type: physicochemical
Description: Dynamic vapor sorption (DVS) is a method that has been used for a long time to investigate the interactions between active pharmaceutical ingredients (APIs), and pharmaceutical preparations and water. Here, to analyze the water absorption rate of a sample at a specific temperature, measurements are made by exposing the sample to the desired relative humidity using a DVS water sorption analyzer (hygroscopicity analyzer) until the change in weight of the sample stabilizes.

[2] = Standard stock solution stability, 60° C./75±5% RH; assay type: physicochemical; conditions: 60° C./75% RH, Initial
Procedure: The stability of the crystalline compound was under 60° C./75±5% RH conditions, and the purity thereof was examined by HPLC method. The experimental conditions used in the stability test for Compound 1a and the test results are as follows.
60° C./75±5% RH: Conditions in which the vial was open and upright.
A required amount (˜1 mg) of solid material was dissolved in 1 mL of a diluent (1:1 methanol/water), and the prepared solution was analyzed by HPLC.

[3] = pH stability and salinity stability, 40±2° C.; assay type: physicochemical
Procedure: pH and salinity stability tests for the hemifumirate salt of Compound 1 were performed at an initial target concentration of 2 mg/mL. The pH and salinity stability conditions used to evaluate the hemifumirate salt of Compound 1 and the evaluation results are as follows.
• 40±2° C.: Conditions in which the vial was capped and upright • Storage container for stability: 2-mL screw neck clear glass vial (manufactured by La-Pha-Pack) • Target concentration: ˜ 2 mg/mL (adding the sample to 1 mL of medium, followed by vortexing for 30 seconds) • 500 μL of the test mixture was dissolved in 500 μL of a diluent (1:1 methanol/water), and the prepared solution was analyzed by HPLC without filtration.

[4] = Oxidation stability test (30% H2O2); assay type: physicochemical
[5] = system: T cells, CD4 T cells, and CD8 T cells; assay: Inhibitory effect against mouse immune cells (FACS after oral administration); assay type: in vivo; conditions: mice, oral 3 mg/kg
Procedure: In order to examine whether Compound 1, which acts on the S1P receptor, also is effective in reducing lymphocytes, the effect of Compound 1 on immune cells was evaluated. After oral administration of Compound 1 to mice at 3 mg/kg/day, changes in lymphocytes in peripheral blood (PB) and bone marrow (BM) were classified into T cells, CD4 T cells, and CD8 T cells. FACS analysis was performed 0, 4, 8, 12, 24, and 36 hours after administration of the test substance. Cell number was measured and expressed as a percentage relative to that at time 0 (% of control).

[6] = system: T cells, CD4 T cells, and CD8 T cells; assay: Inhibitory effect against rat immune cells (FACS after oral administration); assay type: in vivo; conditions: SD rats
Procedure: In order to evaluate the effect of Compound 1a on rat immune cells, Compound 1a was administered orally to SD rats at 10 mg/kg/day, and then lymphocytes in peripheral blood (PB) and bone marrow (BM) were classified into T cells, CD4 T cells, and CD8 T cells. FACS analysis was performed 0, 4, 8, 12, 24, 36, and 48 hours after administration of the test substance. Cell number was measured and expressed as a percentage relative to that at time 0 (% of control). The numbers of T cells, CD4 T cells, and CD8 T cells were measured and expressed as percentages relative to those at time 0 (% of control).

[7] = system: unilateral ureteral obstruction (UUO) model; assay: Unilateral ureteral obstruction (UUO) renal fibrosis model; assay type: in vivo; conditions: UUO mice, 2 weeks
Procedure: The antifibrotic effect of Compound 1a in renal disease was evaluated using the unilateral ureteral obstruction (UUO) model, which is a renal fibrotic disease model. Kidney fibrosis was induced by unilateral ureteral obstruction of mice, and then Compound 1a at 10, 30, and 90 mg/kg/day and the positive control substance telmisartan at 30 mg/kg/day were orally administered to the mice once a day for 2 weeks.

[8] = system: alopecia areata model (C3H/HeJ); assay: Alopecia areata model (C3H/HeJ); assay type: in vivo; conditions: C3H/HeJ mice, 30 mg/kg orally, 12 weeks
Procedure: The efficacy of Compound 1a against alopecia areata was evaluated using a model (C3H/HeJ) with spontaneous alopecia areata. The C3H/HeJ mice used in the test are animals that spontaneously develop alopecia areata with increasing age. […] 30 mg/kg of Compound 1a was administered orally to the mice for 12 weeks, and then disease-free ratio and AA lesion area were measured.

CCCCCCCCCCn1cc(CCC(N)(CO)CO)nn1 [Compound 1a, 2-amino-2-(2-(1-decyl-1H-1,2,3-triazol-4-yl)ethyl) propane-1,3-diol]
hygroscopicity (DVS evaluation, in words) ([1]; 90% RH, listed as Example 1): very low hygroscopicity | DVS remark (adsorption at 90% RH) ([1]; water adsorption at 90% RH, DVS): less than 2% | Purity % [2]: 99.11% | Purity % ([3]; SGF/40° C., 1-week): 99.25% | Purity % ([3]; SGF/40° C., 2-week): 99.29% | Purity % ([3]; SGF/40° C., Initial): 99.13% | Purity % ([3]; Saline (0.9% NaCl)/40° C., 1-week): 99.05% | Purity % ([3]; Saline (0.9% NaCl)/40° C., Initial): 99.20% | Purity % ([3]; pH 1.2 HCl buffer/40° C., 1-week): 98.26% | Purity % ([3]; pH 1.2 HCl buffer/40° C., 2-week): 98.76% | Purity % ([3]; pH 1.2 HCl buffer/40° C., Initial): 98.92% | Purity % ([3]; pH 4.7 acetate buffer/40° C., 1-week): 99.46% | Purity % ([3]; pH 4.7 acetate buffer/40° C., 2-week): 99.69% | Purity % ([3]; pH 4.7 acetate buffer/40° C., Initial): 99.23% | Purity % ([3]; pH 6.8 phosphate buffer/40° C., 1-week): 98.36% | Purity % ([3]; pH 6.8 phosphate buffer/40° C., Initial): 99.20% | Purity % ([4]; 30% H2O2 25° C. for 3 hours): 99.50% | Purity % ([4]; 30% H2O2 25° C. for 24 hours): 94.30% | CD4 T cells in peripheral blood, relative to time 0 (% of control) ([5]; 4 hours): 16.4% and 17.6% | CD8 T cells in peripheral blood, relative to time 0 (% of control) ([5]; 4 hours): 5.9% and 9.3% | T cells in peripheral blood, relative to time 0 (% of control) ([5]; 4 hours): 40.6% and 41.6% | T-cell distribution in bone marrow (BM), % of control ([5]; 4 hours): 135% and 120% | T-cell distribution in bone marrow (BM), % of control ([5]; 24 hours): 131% and 118% | change of cell number in bone marrow (BM) [6]: no change or a tendency to increase | inhibitory effect on number of T cells in peripheral blood (PB) ([6]; dose-dependent, doses of the three values not given): 70% and 80% and 87% | Kidney hydroxyproline ([7]; 10 mg/kg/day orally): statistically significantly decreased | Kidney hydroxyproline ([7]; 30 mg/kg/day orally): statistically significantly decreased | Kidney hydroxyproline ([7]; 90 mg/kg/day orally): statistically significantly decreased | Kidney hydroxyproline (second statement, 'in particular', p<0.05) ([7]; 90 mg/kg/day orally): statistically significantly decreased | body weight versus control group [8]: no significant difference | days when 100% alopecia areata was observed [8]: 84 days
